# Source: patent US20110313004A1, “DEUTERATED PYRIDINONES” (CONCERT PHARMACEUTICALS, INC., priority 2008, published 2011)
# Assay: Storage stability of the isolated compound at about −20° C.
# Format: physicochemical
# Settings: storage for approximately 2 weeks at about −20° C.
# Excerpt: Compound 139 was synthesized in the same manner as Compound 151 with the exception that 4-fluoro-2,3,5,6-d4-aniline (98% atom % D, CDN Isotopes) was used in place of D p-toluidine-d9 in step 1. ^1H NMR (CDCl3): δ 7.44 (dd, J=2.5, 9.6, 1H), 7.31 (d, J=2.5, 1H), 6.67 (d, J=9.3, 1H). MS (M+H): 226.1.
# Compound 161 was synthesized in the same manner as Compound 101 (Example 1, Scheme 6, steps 1-3), except that 4-chloro-2,3,5,6-d4-aniline (98% atom % D, CDN Isotopes) was used in place of aniline in step 1. MS (M+H): 242.1.
# A solution of (ethyl carbonic) 1-(4-(methoxy-d3)phenyl-d4)-6-oxo-1,6-dihydropyridine-3-carboxylic anhydride 27 (464 mg, approximately. 1.43 mmol) in THF (14.8 mL) was cooled to 10° C. and NaBD4 (98 atom % D, Cambridge Isotopes Laboratories) (295 mg, 7.01 mmol) was added. To the resulting slurry was added MeOD (1.42 mL) via syringe pump at a rate of 0.015 mL/min. Upon completion, the reaction was diluted with MeOD and concentrated nearly to dryness on a rotary evaporator. This process was repeated twice. The resulting solid was suspended in CH2Cl2, silica gel was added, the slurry concentrated to dryness in vacuo, and the resulting solid was added to the top of a silica gel column. Purification via column chromatography on an ISCO instrument (0 to 10% MeOH in CH2Cl2) provided impure final product. A further purification by ISCO (50 to 100% EtOAc in hexanes) followed by a preparatory HPLC purification afforded 116 mg of the final product 156 in approximately 85% purity. ^1H NMR (CDCl3): δ 7.43 (dd, J=2.7, 9.5, 1H), 7.31 (dd, J=0.6, 2.5, 1H), 6.66 (dd, J=0.6, 9.5, 1H). MS (M+H): 241.1.
row,condition of compound after storage,SMILES
1,decomposed,"[2H]c1c([2H])c(-n2cc(C([2H])([2H])O)ccc2=O)c([2H])c([2H])c1F [Compound 139, 1-(4-Fluorophenyl-d4)-5-(hydroxy(methyl-d2))pyridin-2(1H)-one]"
2,decomposed,"[2H]c1c([2H])c(-n2cc(C([2H])([2H])O)ccc2=O)c([2H])c([2H])c1Cl [Compound 161, 1-(4-Chlorophenyl-d4)-5-(hydroxy(methyl-d2))-pyridin-2(1H)-one]"
3,decomposed,"[2H]c1c([2H])c(-n2cc(C([2H])([2H])O)ccc2=O)c([2H])c([2H])c1OC([2H])([2H])[2H] [Compound 156, 5-(Hydroxyl(methyl-d2))-1-(4-(methoxy-d3)phenyl-d4)pyridin-2(1H)-one]"
